Where a name gives a salt, the structure may show the parent alone. Read-outs that look alike come from different tables or passages of the source.
Assays:
[1] = system: Human Cartilage; assay: Human cartilage explant assay (nitrite production, IL-1β induced); assay type: cell-based; conditions: inhibition of nitrite production, IL-1β stimulated explants
Protocol: Human Cartilage Explant Assay
Bone pieces are rinsed twice with Dulbecco's Phosphate Buffered Saline (GibcoBRL) and once with Dulbecco's Modified Eagles Medium (GibcoBRL) and placed into a petri dish with phenol red free Minimum Essential Medium (MEM) (GibcoBRL). Cartilage was cut into small explants of approximately 15-45 mg in weight and one or two explants per well are placed into either 96 or 48 well culture plates with 200-500 μL of culture media per well. The culture media was either a custom modification of Minimum Essential Medium(Eagle) with Earle's salts (GibcoBRL) prepared without L-Arginine, without L-Glutamine and without phenol red or a custom modification of serumless Neuman and Tytell (GibcoBRL) medium prepared without L-arginine, without insulin, without ascorbic acid, without L-glutamine and without phenol red. Both are supplemented before use with 100 μM L-Arginine (Sigma), 2 mM L-glutamine, 1×HL-1 supplement (BioWhittaker), […] ascorbic acid (Sigma) and 150 pg/ml recombinant human IL-1β (RD Systems) to induce nitric oxide synthase. Compounds are then added in 10 μL aliquots and the explants incubated at 37° C. with 5% CO2 for 18-24 hours. The day old supernatant is then discarded and replaced with fresh culture media containing recombinant human IL-1β and compound and incubated for another 20-24 hours. […] All samples are done in quadruplicate. Unstimulated controls are cultured in media in the absence of recombinant human IL-1β. IC50 values (Table I) are determined from plotting the percent inhibition of nitrite production at six different concentrations of inhibitor.

[2] = system: LPS-induced increase in plasma nitrite/nitrate levels; assay: In vivo assay: endotoxin-treated rats, plasma nitrite/nitrate; design: species or system rat; conditions: oral administration, plasma nitrite/nitrate 5 hours post-treatment
Protocol: Plasma nitrite/nitrate levels can be determined 5 hours post-treatment.

[3] = biological target: i-NOS (Homo sapiens, UniProt P35228); assay: i-NOS inhibition, comparison with NIL amides; assay type: biochemical
i-NOS, sequence (P35228 whole entry): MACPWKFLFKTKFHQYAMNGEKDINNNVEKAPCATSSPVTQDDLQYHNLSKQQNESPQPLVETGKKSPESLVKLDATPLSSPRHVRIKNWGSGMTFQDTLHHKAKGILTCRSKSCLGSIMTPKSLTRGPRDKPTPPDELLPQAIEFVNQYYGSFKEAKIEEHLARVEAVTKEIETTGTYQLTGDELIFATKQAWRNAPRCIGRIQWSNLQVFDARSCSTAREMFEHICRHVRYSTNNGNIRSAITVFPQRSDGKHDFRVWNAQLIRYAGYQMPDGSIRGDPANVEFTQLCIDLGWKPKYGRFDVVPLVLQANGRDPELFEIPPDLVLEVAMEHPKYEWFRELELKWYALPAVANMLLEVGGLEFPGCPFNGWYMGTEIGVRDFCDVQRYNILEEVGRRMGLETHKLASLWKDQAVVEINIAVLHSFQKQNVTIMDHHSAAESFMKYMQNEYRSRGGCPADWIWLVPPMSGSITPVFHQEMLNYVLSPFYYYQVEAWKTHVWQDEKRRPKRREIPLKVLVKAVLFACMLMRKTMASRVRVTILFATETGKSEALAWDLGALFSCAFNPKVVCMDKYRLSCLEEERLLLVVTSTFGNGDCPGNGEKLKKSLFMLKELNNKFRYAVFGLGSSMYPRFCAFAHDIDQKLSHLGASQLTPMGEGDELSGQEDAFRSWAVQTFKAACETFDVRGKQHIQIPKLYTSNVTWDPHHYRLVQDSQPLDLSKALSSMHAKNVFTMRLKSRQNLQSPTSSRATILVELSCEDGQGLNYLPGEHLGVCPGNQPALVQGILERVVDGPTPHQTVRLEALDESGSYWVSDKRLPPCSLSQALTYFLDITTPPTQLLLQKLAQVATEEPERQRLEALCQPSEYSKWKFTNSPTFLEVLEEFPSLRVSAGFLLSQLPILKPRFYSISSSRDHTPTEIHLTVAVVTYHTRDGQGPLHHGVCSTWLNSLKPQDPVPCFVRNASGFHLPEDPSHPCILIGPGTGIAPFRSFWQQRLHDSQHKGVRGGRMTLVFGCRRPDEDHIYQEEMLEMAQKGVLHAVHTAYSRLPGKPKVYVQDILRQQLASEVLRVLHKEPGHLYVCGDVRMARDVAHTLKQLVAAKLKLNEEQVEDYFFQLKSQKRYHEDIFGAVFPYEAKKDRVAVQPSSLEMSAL

[4] = biological target: T1, hiNOS (Homo sapiens, UniProt P35228); assay: Assay for time dependent inhibition, hiNOS; assay type: biochemical; conditions: 60 min preincubation
T1 construct: made in house; host or cells: Sf9 insect cells (baculovirus vector)
Protocol: Assay for Time Dependent Inhibition
Aliquots (10 μL) are removed at 0, 10, 21 and 60 minutes and immediately added to a citrulline assay enzyme reaction mixture containing L-[2,3-^3H]-arginine and a final L-arginine concentration of 30 μM in a final volume of 100 μL. The reaction is allowed to proceed for 15 minutes at 37° C. and terminated by addition of stop buffer and chromatography with Dowex 50W X-8 cation exchange ion exchange resin as described for the citrulline NOS assay. The % inhibition of NOS activity by an inhibitor was taken as the percent inhibition in activity compared to control enzyme preincubated for the same time in the absence of inhibitor.

[5] = Rattus norvegicus, read-out: ED50

Q: Which IC50 [1] does the source give for `COC[C@](N)(CSCCNC(C)=N)C(=O)O` [Example J, 2-[[[2-[(1-Iminoethyl)amino]ethyl]thio]methyl]-O-methyl-D-serine, dihydrochloride] here?
A: The IC50 was 8200 nM.

Q: Which ED50 [2, 5] does the source give for `CC(=N)NC/C=C\CC[C@](C)(N)C(=O)O` [Example LL, (2S,5Z)-7-acetimidoylamino-2-amino-2-methyl-hept-5-enoic acid] here?
A: The ED50 was 0.3 mg/kg.

Q: What about the IC50 ([1]; Homo sapiens) of the same compound?
A: The IC50 was 800 nM.

Q: With `CC(=N)NCCCC[C@H](N)C(=O)Nc1nnn[nH]1` [Example NN, 2S-amino-6-[(1-iminoethyl)amino]-N-(1H-tetrazol-5-yl)hexanamide, hydrate, dihydrochloride] as the compound, how does the “i-NOS inhibitor potency relative to NIL amide or NIL dimethylamide” value ([3]; compared with 2S-amino-6-[(1-iminoethyl)amino]hexanamide (NIL amide) or NIL dimethylamide) read?
A: The value was “more potent”.

Q: For `CC(=NO)NC/C(F)=C\CC[C@H](N)C(=O)O` [Example G, (2S,5E)-2-amino-6-fluoro-7-[(1-hydroximinoethyl)amino]-5-heptenoic acid], which melting point is on record?
A: Its melting point is 198 to 200 °C.

Q: What about the ED50 [2, 5] of the same compound?
A: The ED50 was less than 0.1 mg/kg.

Q: For `Cl.N=C1CCCC[C@@H](CCCC[C@H](N)C(=O)O)N1.O.O.O` [Example W, (αS,2R)-α-aminohexahydro-7-imino-1H-azepine-2-hexanoic acid, trihydrate hydrochloride], which ED50 [2, 5] is on record?
A: Its ED50 is greater than 10 mg/kg.

Q: What about the IC50 ([1]; Homo sapiens) of the same compound?
A: The IC50 was greater than 30000 nM.

Q: For `CC(=N)NC/C(F)=C\CC[C@H](N)C(=O)O` [Example A, (2S,5E)-2-amino-6-fluoro-7-[(1-iminoethyl)amino]-5-heptenoic acid, dihydrochloride, monohydrate], which ED50 [2, 5] is on record?
A: The ED50 was less than 0.1 mg/kg.

Q: What about the ED50 ([2]; dihydrochloride, monohydrate) of the same compound?
A: The ED50 was less than 0.1 mg/kg.

Q: And the IC50 ([1]; Homo sapiens)?
A: The IC50 was 100 nM.

Q: Which ED50 [2, 5] does the source give for `CC(=N)NC/C(F)=C\CC[C@H](N)C(=O)Nc1nnn[nH]1` [Example H, (2S,5E)-2-amino-6-fluoro-7-[(1-iminoethyl)amino]-N-(1H-tetrazol-5-yl) 5-heptenamide, dihydrochloride] here?
A: The ED50 was less than 0.3 mg/kg.

Q: Which results are given for `CC(=N)NC/C(F)=C/CC[C@H](N)C(=O)O` [Example D, (2S,5Z)-2-amino-6-fluoro-7-[(1-iminoethyl)amino]-5-heptenoic acid, trihydrochloride, dihydrate]?
A: ED50 [2, 5]: > 10 mg/kg; IC50 ([1]; Homo sapiens): 2500 nM

Q: Which results are given for `CC(=N)NC/C(F)=C\CC[C@](C)(N)C(=O)O.Cl.Cl` [Example HH, (2S,5E)-2-amino-2-methyl-6-fluoro-7-[(1-iminoethyl)amino]-5-heptenoic acid, dihydrochloride]?
A: ED50 [2, 5]: 0.4 mg/kg; IC50 ([1]; Homo sapiens): 400 nM

Q: What does the source list for `Cl.N=C1CCCC[C@H](CCCC[C@@H](N)C(=O)O)N1.O.O.O` [Example V, (αR,2S)-α-aminohexahydro-7-imino-1H-azepine-2-hexanoic acid, trihydrate hydrochloride]?
A: ED50 [2, 5]: < 3 mg/kg; IC50 ([1]; Homo sapiens): < 10000 nM

Q: Which IC50 [1] does the source give for `N=C1CCCC[C@H](CCCC[C@H](N)C(=O)O)N1` [Example X, (αS,2S)-α-aminohexahydro-7-imino-1H-azepine-2-hexanoic acid, trihydrate hydrochloride] here?
A: The IC50 was less than 10000 nM.

Q: For `CC(=N)NCC(F)=CCC[C@H](N)C(=O)O` (mixture of isomers) [Example B, (2S,5E/Z)-2-amino-6-fluoro-7-[(1-iminoethyl)amino]-5-heptenoic acid, dihydrochloride], which IC50 ([1]; Homo sapiens) is on record?
A: Its IC50 is 200 nM.

Q: For `N=C1CCCC[C@H](CCCC[C@H](N)C(=O)O)N1` [Example Z, (αS,2S)-α-aminohexahydro-7-imino-1H-azepine-2-hexanoic acid, trihydrate hydrochloride], which IC50 ([1]; Homo sapiens) is on record?
A: Its IC50 is less than 10000 nM.

Q: And the inhibition at 22 µM [4]?
A: The inhibition at 22 µM was 85%.

Q: With “2S-amino-6-[(1-iminoethyl)amino]-N-(1H-tetrazol-5-yl)hexanamide, hydrate, dihydrochloride [Example 1]” as the compound, how does the “i-NOS selectivity relative to NIL amide or NIL dimethylamide” value ([3]; compared with NIL amide or NIL dimethylamide) read?
A: Its value is “more selective”.
